Measurements from paper PMC3483115 (The Journal of General Physiology, 2012).
Ends that are not written are not given here. MBP = maltose-binding protein (N-terminal fusion)

What was measured:
TRPV1 K155A [1] = type: cell-based, rat; settings: repeated 1 µM capsaicin, whole cell, extracellular Ca^2+
TRPV1 K155A [2] = settings: ref Lishko et al., 2007; cited from earlier work
Ca^2+–CaM [3] = molecular target: T1, Ca^2+–CaM (Homo sapiens, UniProt P0DP23); settings: ref Lishko et al., 2007; cited from earlier work
Ca^2+–CaM [4] = molecular target: T1, Ca^2+–CaM; test: CaM-agarose pulldown of MBP-fused TRPV1-CT35 peptides; type: binding; settings: CaM-agarose pulldown (Fig. S2), pH 7.5, 1 mM CaCl2 or EGTA, 4°C, 1 h
Ca^2+–CaM [5] = molecular target: T1, Ca^2+–CaM; test: SEC-based comparison of Ca^2+–CaM affinity, TRPV1-ARD vs. TRPV1-CT; type: binding; settings: suggested by SEC; affinity could not be measured
CaM = test: SEC of TRPV1-CT peptides mixed with CaM; type: binding; settings: Superdex 75, in the presence of Ca^2+, data shown for TRPV1-CT44
TRPV1 = settings: ref Liu et al., 2005, Lishko et al., 2007, Lukacs et al.; cited from earlier work

COc1cc(CNC(=O)CCCC/C=C/C(C)C)ccc1O [capsaicin]
tachyphylaxis and activation kinetics, K155A TRPV1 (TRPV1 K155A [1]): little tachyphylaxis and slower activation kinetics | capsaicin sensitivity of K155A TRPV1 (TRPV1 K155A [2]): normal capsaicin sensitivity

K155A: TRPV1 with mutation K155A in the TRPV1-ARD
Ca^2+–CaM binding to TRPV1-ARD with mutation (Ca^2+–CaM [3]): abolish Ca^2+–CaM binding to TRPV1-ARD

L796P ({MBP}-EGVKRTLSFSLRSGRVSGRNWKNFALVPLPRDAST)
Ca^2+–CaM binding of L796P MBP-TRPV1-CT35 (pulldown) (Ca^2+–CaM [4]): did not significantly disrupt binding of TRPV1-CT35 to Ca^2+–CaM

TRPV1-ARD: N-terminal ankyrin repeat domain of TRPV1 (rat or chicken)
affinity of TRPV1-ARD for Ca^2+–CaM relative to TRPV1-CT (Ca^2+–CaM [5]): the affinity is likely significantly lower than that of the TRPV1-CT

TRPV1-CT35: 35-residue CaM-binding peptide from the TRPV1-CT (residues 767–801) (EGVKRTLSFSLRSGRVSGRNWKNFALVPLLRDAST; left off: MBP, N-terminal, cleaved)
shift in elution volume with CaM (CaM): undergo a large shift in elution volume when mixed with CaM in the presence of Ca^2+, confirming that a complex is formed

phosphatidylinositol-4,5-bisphosphate [PIP2]
effect of PIP2 on TRPV1 (TRPV1): can also potentiate TRPV1
